Laboratory results as given in ChEMBL document CHEMBL3217418, “Design, synthesis and biological activity evaluation of regioisomeric spiro-(indoline-isoxazolidines) in the inhibition of TNF--induced ICAM-1 expression on human endothelial cells” (Medchemcomm, 2012).
Active and inactive are the calls of the source. The calls are words filed in the database; no cut-off is given here.

Legend:
[1] = tested on: HUVEC; assay: Antiinflammatory activity in HUVEC assessed as inhibition of TNFalpha-induced ICAM-1 expression incubated for 2 hrs prior to TNFalpha challenge measured after 16 hrs by ELISA; format: functional, cell-based; conditions: Homo sapiens
[2] = Cytotoxicity against HUVEC assessed as concentration at which viability is > 95 % after 24 hrs by MTT assay; format: cell-based; conditions: human, HUVEC cells; read-out: MTD
[3] = Cytotoxicity against HUVEC assessed as cell viability after 24 hrs by MTT assay relative to control; format: cell-based; set-up: concentration or dose not given beside the values; conditions: human, HUVEC cells; read-out: Activity
[4] = target: Transcription factor p65 (Homo sapiens) (UniProt Q04206); assay: Inhibition of NF-kappaB p65 subunit translocation from cytoplasm to nucleus in HUVEC at 100 uM incubated for 2 hrs prior to TNFalpha challenge measured after 30 mins by SDS-PAGE
[5] = tested on: Neutrophil; assay: Inhibition of human neutrophil adhesion to human endothelial cells incubated for 2 hrs prior to TNFalpha challenge measured after 6 hrs by spectroscopy; format: functional, cell-based
[6] = target: Transcription factor p65 (Homo sapiens) (UniProt Q04206); assay: Inhibition of NF-kappaB p65 subunit translocation from cytoplasm to nucleus in HUVEC at 1 to 100 uM incubated for 2 hrs prior to TNFalpha challenge measured after 30 mins by SDS-PAGE
[7] = target: Transcription factor p65 (Homo sapiens) (UniProt Q04206); assay: Inhibition of NF-kappaB p65 subunit translocation from cytoplasm to nucleus in HUVEC assessed as NF-kappaB p65 subunit level in cytoplasm at 1 to 100 uM incubated for 2 hrs prior to TNFalpha challenge measured after 30 mins by densitometry
[8] = target: Transcription factor p65 (Homo sapiens) (UniProt Q04206); assay: Inhibition of NF-kappaB p65 subunit translocation from cytoplasm to nucleus in HUVEC assessed as NF-kappaB p65 subunit level in nuclear extract at 1 to 100 uM incubated for 2 hrs prior to TNFalpha challenge measured after 30 mins by densitometry

Sequence of Transcription factor p65 (Homo sapiens) (Q04206 whole entry): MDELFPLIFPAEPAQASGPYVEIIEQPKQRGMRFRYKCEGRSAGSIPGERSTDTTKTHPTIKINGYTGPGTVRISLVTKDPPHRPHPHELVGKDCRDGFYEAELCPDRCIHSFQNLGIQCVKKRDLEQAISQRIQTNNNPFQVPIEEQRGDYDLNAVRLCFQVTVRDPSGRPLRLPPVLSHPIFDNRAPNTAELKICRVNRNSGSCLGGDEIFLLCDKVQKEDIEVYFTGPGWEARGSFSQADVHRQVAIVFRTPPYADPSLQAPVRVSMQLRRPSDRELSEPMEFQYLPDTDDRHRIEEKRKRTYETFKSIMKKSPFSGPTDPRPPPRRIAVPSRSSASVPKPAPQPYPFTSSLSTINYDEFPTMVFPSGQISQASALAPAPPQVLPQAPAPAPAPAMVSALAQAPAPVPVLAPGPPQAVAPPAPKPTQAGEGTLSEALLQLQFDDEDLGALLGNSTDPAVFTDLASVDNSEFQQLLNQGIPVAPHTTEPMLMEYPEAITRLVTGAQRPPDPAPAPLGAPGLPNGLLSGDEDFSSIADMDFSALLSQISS

SMILES	IC50 [1]	MNTC at 24 h [2]	viability at 24 h [3]	other results
CCOC(=O)C1ON(c2ccccc2)C(c2cccc(Cl)c2)C12C(=O)Nc1ccccc12 (stereo not given)	25 µM	223 µM	96%	
CCOC(=O)C1ON(c2ccccc2)C(c2ccc([N+](=O)[O-])cc2)C12C(=O)Nc1ccc(F)cc12 (stereo not given)	32 µM	105 µM	97%	
CCOC(=O)C1ON(c2ccccc2)C(c2cccc(F)c2)C12C(=O)Nc1ccc(F)cc12 (stereo not given)	66 µM	111 µM	95%	
CCOC(=O)C1C(c2cccc(Cl)c2)N(c2ccccc2)OC12C(=O)Nc1ccccc12 (stereo not given)	35 µM	223 µM	97%	
CCOC(=O)C1ON(c2ccccc2)C(c2cccc(F)c2)C12C(=O)Nc1ccccc12 (stereo not given)	> 162 µM	231 µM	98%	
CCOC(=O)C1C(c2cccc([N+](=O)[O-])c2)N(c2ccccc2)OC12C(=O)Nc1ccccc12 (stereo not given)	45 µM	218 µM	98%	
CCOC(=O)C1ON(c2ccccc2)C(c2ccc(Br)cc2)C12C(=O)Nc1ccccc12 (stereo not given)	51 µM	203 µM	98%	
CCOC(=O)C1C(c2ccc(Cl)cc2)N(c2ccccc2)OC12C(=O)Nc1ccccc12 (stereo not given)	> 223 µM	223 µM	96%	
CCOC(=O)C1ON(c2ccccc2)C(c2ccc(Cl)cc2)C12C(=O)Nc1ccccc12 (stereo not given)	147 µM	223 µM	96%	
CCOC(=O)C1ON(c2ccccc2)C(c2ccc(OC)cc2)C12C(=O)Nc1ccc(F)cc12 (stereo not given)	42 µM	108 µM	96%	
CCOC(=O)C1ON(c2ccccc2)C(c2ccc(F)cc2)C12C(=O)Nc1ccc(F)cc12 (stereo not given)	> 111 µM	111 µM	96%	
CCOC(=O)C1ON(c2ccccc2)C(c2cccc(OC)c2OC)C12C(=O)Nc1ccc(F)cc12 (stereo not given)	32 µM	102 µM	98%	
CCOC(=O)C1ON(c2ccccc2)C(c2ccc(C(F)(F)F)cc2)C12C(=O)Nc1ccc(F)cc12 (stereo not given)	57 µM	100 µM	96%	
CCOC(=O)C1C(c2ccc([N+](=O)[O-])cc2)N(c2ccccc2)OC12C(=O)Nc1ccccc12 (stereo not given)	> 217 µM	218 µM	97%	
CCOC(=O)C1C(c2ccc(Br)cc2)N(c2ccccc2)OC12C(=O)Nc1ccccc12 (stereo not given)	41 µM	203 µM	96%	
CCOC(=O)C1ON(c2ccccc2)C(c2cccc([N+](=O)[O-])c2)C12C(=O)Nc1ccccc12 (stereo not given)	169 µM	218 µM	96%	
CCOC(=O)C1ON(c2ccccc2)C(c2ccc(N(C)C)cc2)C12C(=O)Nc1ccc(F)cc12 (stereo not given)	26 µM	110 µM	96%	
CCOC(=O)C1ON(c2ccccc2)C(c2ccc(Cl)cc2)C12C(=O)Nc1ccc(F)cc12 (stereo not given)	54 µM	107 µM	96%	
CCOC(=O)C1ON(c2ccccc2)C(c2cc(OC)c(OC)c(OC)c2)C12C(=O)Nc1ccc(F)cc12 (stereo not given)	29 µM	96 µM	97%	
S=C(S)N1CCCC1				inhibition [4]: Active

SMILES	IC50 [1]	MNTC at 24 h [2]	viability at 24 h [3]	other results
CCOC(=O)C1C(c2ccc(F)cc2)N(c2ccccc2)OC12C(=O)Nc1ccccc12 (stereo not given)	146 µM	231 µM	96%	
CCOC(=O)C1ON(c2ccccc2)C(c2cccc(C)c2)C12C(=O)Nc1ccc(F)cc12 (stereo not given)	45 µM	112 µM	98%	
CCOC(=O)C1C(c2cccc(C)c2)N(c2ccccc2)OC12C(=O)Nc1ccccc12 (stereo not given)	57 µM	234 µM	96%	
CCOC(=O)C1ON(c2ccccc2)C(c2ccccc2F)C12C(=O)Nc1ccc(F)cc12 (stereo not given)	51 µM	111 µM	96%	
CCOC(=O)C1C(c2ccc(C#N)cc2)N(c2ccccc2)OC12C(=O)Nc1ccc(F)cc12 (stereo not given)	49 µM	110 µM	98%	
CCOC(=O)C1ON(c2ccccc2)C(c2ccc(Br)cc2)C12C(=O)Nc1ccc(F)cc12 (stereo not given)	35 µM	98 µM	98%	
CCOC(=O)C1C(c2cccc(Br)c2)N(c2ccccc2)OC12C(=O)Nc1ccccc12 (stereo not given)	100 µM	203 µM	95%	
CCOC(=O)C1ON(c2ccccc2)C(c2cccc(C)c2)C12C(=O)Nc1ccccc12 (stereo not given)	35 µM	234 µM	98%	
CCOC(=O)C1ON(c2ccccc2)C(c2ccc(C#N)cc2)C12C(=O)Nc1ccc(F)cc12 (stereo not given)	48 µM	110 µM	96%	
CCOC(=O)C1C(c2ccc(C)cc2)N(c2ccccc2)OC12C(=O)Nc1ccccc12 (stereo not given)	31 µM	234 µM	96%	
CCOC(=O)C1ON(c2ccccc2)C(c2ccc(F)c(F)c2)C12C(=O)Nc1ccc(F)cc12 (stereo not given)	62 µM	107 µM	95%	
CCOC(=O)C1C(c2cccc(F)c2)N(c2ccccc2)OC12C(=O)Nc1ccccc12 (stereo not given)	35 µM	116 µM	98%	
CCOC(=O)C1ON(c2ccccc2)C(c2ccc(OCC)cc2)C12C(=O)Nc1ccc(F)cc12 (stereo not given)	12 µM	105 µM	97%	IC50 [5]: 12.5 µM; inhibition [5]: Dose-dependent effect; inhibition [6]: Dose-dependent effect; inhibition [7]: Active; inhibition [8]: Active
CCOC(=O)C1ON(c2ccccc2)C(c2ccc(C)cc2)C12C(=O)Nc1ccccc12 (stereo not given)	52 µM	234 µM	99%	
CCOC(=O)C1ON(c2ccccc2)C(c2cccc(Br)c2)C12C(=O)Nc1ccccc12 (stereo not given)	57 µM	203 µM	95%	
CCOC(=O)C1ON(c2ccccc2)C(c2ccc([N+](=O)[O-])cc2)C12C(=O)Nc1ccccc12 (stereo not given)	> 217 µM	218 µM	97%	
CCOC(=O)C1ON(c2ccccc2)C(c2ccc(F)cc2)C12C(=O)Nc1ccccc12 (stereo not given)	51 µM	116 µM	96%	
O=C(/C=C/C=C/c1ccc2c(c1)OCO2)N1CCCCC1 [PIPERINE]	100 µM	250 µM	98%	
CCOC(=O)C1C(c2cccc(OC)c2OC)N(c2ccccc2)OC12C(=O)Nc1ccc(F)cc12 (stereo not given)	27 µM	102 µM	99%	
